Patent EP3681856B1, “COMPOUNDS HAVING PRESERVATIVE, ANTIMICROBIAL AND ANTISEPTIC ACTIVITY” (Universita' degli Studi di Milano, priority 2017, dated 2019)

Experiments:
Format in all cases: cell-based
[1] = system: Candida humilis UMY12 (UNIMI collection); assay: disc diffusion test on yeast; details: MHA with 2% glucose, 5120 µg/mL, preliminary tests
Protocol: Some preliminary tests were also effected to evaluate the activity against eukaryotic microorganisms such as yeasts.
The disc diffusion method was applied again, using the yeast Candida humilis UMY12 (UNIMI collection).
2% glucose was added to the MHA medium, and the concentration of the suspension amounted to about 3×10^6 CFU/mL. The concentration of the chemical compounds amounted to 5120 µg/mL for both compounds.

Bacillus cereus DSM31 = assay: MIC evaluation, broth microdilution method (CLSI); details: summary statement in words
Excerpt: (§1) Tests were then effected on the two bacteria analysed with the agar diffusion test and on two other microorganisms such as Pseudomonas aeruginosa DSM 22644 (PAO1) and Bacillus cereus DSM31 to evaluate the Minimum Inhibitory Concentration (MIC), i.e. the lowest concentration of compound able to inhibit the growth of a microorganism. The method used was the broth microdilution method (CLSI - Clinical and Laboratory Standards Institute). Briefly, the procedure involved the preparation of serial dilutions of the antimicrobial agent (256 to 0.125 mg/1) distributed in a 96-well microtiter plate (microdilution). Each well was then inoculated with the reference microbial strain at the concentration of about […] (0.5 McFarlands). The 96-well microtiter plates were then incubated at 37°C.

E. coli = assay: MIC evaluation, broth microdilution method (CLSI); details: Escherichia coli, 37°C
Excerpt: as §1

[2] = system: Pseudomonas aeruginosa DSM 22644 (PAO1); assay: MIC evaluation, broth microdilution method (CLSI); details: summary statement in words
Excerpt: as §1

S. aureus = assay: MIC evaluation, broth microdilution method (CLSI); details: Staphylococcus aureus, 37°C
Excerpt: as §1

[3] = system: Escherichia coli ATCC25922; assay: disc diffusion antimicrobial susceptibility test (EUCAST); details: MHA, 1000 to 125 µg/mL, 37°C, 16-20 h, compared with domiphen bromide
Protocol: The antimicrobial susceptibility tests were effected by the disc diffusion method as indicated by EUCAST (European Committee on Antimicrobial Susceptibility Testing). The plates were prepared with Mueller Hinton Agar (MHA) medium into which microbial suspensions of Escherichia coli ATCC25922 and Staphylococcus aureus ATCC25923 were inoculated at a concentration of about 2×10^8 CFU/mL. Sterile discs were then placed on each plate and subsequently inoculated with successive concentrations of the two chemical compounds analysed (domiphen bromide and para-bromo domiphen bromide), together with a positive control (chloramphenicol) and a negative control (MH broth). The plates were then incubated at 37°C in aerobiosis for 16-20 h. After incubation, any inhibition zone due to the potential antimicrobial activity was measured with a ruler, and the activities of the two molecules were compared. In Figure 6 and Figure 7: • TQ= concentration of compound amounting to 1000 µg/mL 1:2= concentration of compound amounting to 500 µg/mL • 1:4= concentration of compound amounting to 250 µg/mL • 1:8= concentration of compound amounting to 125 µg/mL • CHL= chloramphenicol (antibiotic) • CNEG= negative control (MHB).

[4] = system: Staphylococcus aureus ATCC25923; assay: as above; details: MHA, 1000 to 125 µg/mL, 37°C, 16-20 h
Protocol: The antimicrobial susceptibility tests were effected by the disc diffusion method as indicated by EUCAST (European Committee on Antimicrobial Susceptibility Testing). The plates were prepared with Mueller Hinton Agar (MHA) medium into which microbial suspensions of Escherichia coli ATCC25922 and Staphylococcus aureus ATCC25923 were inoculated at a concentration of about 2×10^8 CFU/mL. Sterile discs were then placed on each plate and subsequently inoculated with successive concentrations of the two chemical compounds analysed (domiphen bromide and para-bromo domiphen bromide), together with a positive control (chloramphenicol) and a negative control (MH broth). The plates were then incubated at 37°C in aerobiosis for 16-20 h. After incubation, any inhibition zone due to the potential antimicrobial activity was measured with a ruler, and the activities of the two molecules were compared. In Figure 8 and Figure 9: • TQ= concentration of compound amounting to 1000 µg/mL • 1:2= concentration of compound amounting to 500 µg/mL • 1:4= concentration of compound amounting to 250 µg/mL • 1:8= concentration of compound amounting to 125 µg/mL • CHL= chloramphenicol (antibiotic) • CNEG= negative control (MHB).

Compound | antimicrobial activity against yeast [1] | activity compared with domiphen against Bacillus cereus (Bacillus cereus DSM31) | MIC (E. coli) | activity compared with domiphen against Pseudomonas aeruginosa [2] | MIC (S. aureus) | antimicrobial activity (inhibition zone) towards E. coli [3] | antimicrobial activity (inhibition zone) towards S. aureus [4]
CCCCCCCCCCCC[N+](C)(C)CCOc1ccc(Br)cc1 [compound of formula (Ia), (dodecyldimethyl-2-p-bromophenoxyethyl)ammonium bromide] | almost the same antimicrobial activity | more active than domiphen | 8 µg/mL | more active than domiphen | 1 µg/mL | comparable with that of domiphen bromide | exhibits antimicrobial activity
CCCCCCCCCCCC[N+](C)(C)CCOc1ccccc1 [domiphen bromide, Domiphen bromide, reference compound] | almost the same antimicrobial activity |  | 8 µg/mL |  | 1 µg/mL |  | 
